Here are results for eight molecules from publication PMC5053896 (Journal of the American Chemical Society, 2016).

Converted amounts (≈) assume the structure as drawn. Like-named read-outs stand apart in the source and are kept apart here.

The target in one assay is MurX (Mycobacterium tuberculosis, UniProt P9WMW7). Description: biochemical. In kind it is biochemical, M. tuberculosis.
The subject of another assay is M. tuberculosis. The experiment in a line: M. tuberculosis growth inhibition, microdilution broth method. In kind it is cell-based. As to conditions: for M. tuberculosis growth inhibition MIC50: microdilution broth method. In general terms: Broth dilution looks for growth in wells or tubes with falling amounts of substance.
For a further assay, the system named is Staphylococcus aureus. As to conditions: Staphylococcus aureus infected mice; cited from earlier work.
Assay [1] relates to Gram-positive and Gram-negative bacteria. As to conditions: both Gram-positive and Gram-negative bacteria; cited from earlier work.
For assay [2], the target named is WecA (polyprenyl phosphate-GlcNAc-1-phosphate transferase) (Mycobacterium tuberculosis, UniProt P9WMW5). Format: biochemical, M. tuberculosis. Conditions: for IC50: read-out: WecA inhibition IC50.
The subject of the next assay is MraY. Conditions: read-out: MraY enzyme inhibitory activity IC50; cited from earlier work.
The test system of a further assay is bacteria. Conditions: cited from earlier work.

In general, IC50 refers to the concentration that gives 50% inhibition. As usually defined, the MIC50 is the lowest concentration that inhibits either 50% of growth or 50% of the strains tested, depending on the study. As to `CO[C@H]1[C@@H](O)[C@H](n2ccc(=O)[nH]c2=O)O[C@@H]1[C@@H](O[C@H]1OC(C(=O)N[C@H]2CCCCNC2=O)=C[C@H](O)[C@@H]1O)C(N)=O` [Capuramycin], half-maximal inhibition against MurX (IC50) required 220 nM. In addition, the MIC50 in the assay on M. tuberculosis (Mycobacterium tuberculosis, read-out: M. tuberculosis growth inhibition MIC50) stood at 6.25 µg/mL (≈ 11 µM).

Usually ED50 stands for the dose at which the effect has come halfway, by size or by number of responders. `CO[C@H]1[C@H](O[C@H]([C@H]2O[C@@H](n3ccc(=O)[nH]c3=O)[C@H](O)[C@@H]2O)[C@H](NCCCNC(=O)[C@@H](NC(=O)[C@@H](NC(=O)N[C@H](C(=O)O)C(C)C)[C@@H]2CCN=C(N)N2)[C@@H](OC(=O)CCCCCCCCCCCCN(O)C(=N)N)C(C)C)C(=O)O)O[C@H](CN)[C@H]1O` [Muraymycin A1]: the ED50 in the assay on Staphylococcus aureus is 1.1 mg/kg. In assay [1], the bactericidal activity result was “bactericidal activity”.

Consider `CO[C@H]1[C@H](O[C@H]([C@H]2O[C@@H](n3ccc(=O)[nH]c3=O)[C@H](O)[C@@H]2O)[C@H](NCCCNC(=O)[C@H](CC(C)C)NC(=O)[C@@H](NC(=O)N[C@H](C(=O)O)C(C)C)[C@@H]2CCN=C(N)N2)C(=O)O)O[C@H](CN)[C@H]1O` [Muraymycin D1 (1), Muraymycin D1], for which the IC50 in assay [2] came to 690 nM. For the same molecule, the “M. tuberculosis growth inhibition MIC50” value was 1.56 µg/mL in the assay with M. tuberculosis and 1.56 to 6.25 µg/mL with M. tuberculosis (listed as 1).

In the case of `COC1C(C(OC2OC(C(=O)NC3CCCCNC3=O)=CC(O)C2O)C(N)=O)OC(n2ccc(=O)[nH]c2=O)C1OC` (stereo not shown) [UT-01320], in assay [2], the IC50 turned out to be 60 nM. The “M. tuberculosis growth inhibition MIC50” value in the assay on M. tuberculosis was found to be 1.56 µg/mL.

Consider `CC(C)C[C@H](NC(=O)[C@@H](NC(=O)N[C@H](C(=O)O)C(C)C)[C@@H]1CCN=C(N)N1)C(=O)NCCCN[C@H](C(=O)O)[C@H](O[C@@H]1O[C@H](CN)[C@@H](O)[C@H]1O)[C@H]1O[C@@H](n2ccc(=O)[nH]c2=O)[C@H](O)[C@@H]1O` [muraymycin D2], for which the IC50 in the assay on MraY was 10 nM. Besides, the antibacterial activity result in the assay with bacteria was “no significant antibacterial activity”.

Consider “Muraymycin D1-amide [Muraymycin D1-amide (2)]”, for which the figures for the “M. tuberculosis growth inhibition MIC50” value in the assay on M. tuberculosis and with M. tuberculosis (listed as 2) were 1.56 µg/mL and 1.56 to 6.25 µg/mL, respectively.

Take “Muraymycin D1-diamide [Muraymycin D1-diamide (3)]”: the “Inhibition of WecA enzyme relative to 1 and 2” value in assay [2] is listed as ~ 10 times. The “M. tuberculosis growth inhibition MIC50” value in the assay on M. tuberculosis is 6.25 µg/mL; with M. tuberculosis (listed as 3), 1.56 to 6.25 µg/mL.

Consider Tunicamycin, for which the half-inhibitory concentration (IC50) came out at 150 nM in assay [2] and 3380 nM at MurX (read-out: MurX inhibition IC50). The “M. tuberculosis growth inhibition MIC50” value in the assay on M. tuberculosis was 3.13 µg/mL.
